Data published in US20190167675A1, “METHODS AND COMPOSITIONS FOR APPETITE CONTROL AND WEIGHT MANAGEMENT” (SHANGHAI YAO YUAN BIOTECHNOLOGY CO., LTD., priority 2016, published 2019).
Entries after “also recorded” stand apart in the source; their conditions may differ.

Assays:
[1] = tested on: ASIC; settings: cited from earlier work
[2] = mice; i.t., i.c.v., intraplantar or intravenous; cited from earlier work
[3] = guinea pig TPD model; cited from earlier work
[4] = target: T1, ENaC (Homo sapiens, UniProt P37088+P51168+P51170); settings: in vitro and in vivo; cited from earlier work
T1 sequence (P37088 1-669): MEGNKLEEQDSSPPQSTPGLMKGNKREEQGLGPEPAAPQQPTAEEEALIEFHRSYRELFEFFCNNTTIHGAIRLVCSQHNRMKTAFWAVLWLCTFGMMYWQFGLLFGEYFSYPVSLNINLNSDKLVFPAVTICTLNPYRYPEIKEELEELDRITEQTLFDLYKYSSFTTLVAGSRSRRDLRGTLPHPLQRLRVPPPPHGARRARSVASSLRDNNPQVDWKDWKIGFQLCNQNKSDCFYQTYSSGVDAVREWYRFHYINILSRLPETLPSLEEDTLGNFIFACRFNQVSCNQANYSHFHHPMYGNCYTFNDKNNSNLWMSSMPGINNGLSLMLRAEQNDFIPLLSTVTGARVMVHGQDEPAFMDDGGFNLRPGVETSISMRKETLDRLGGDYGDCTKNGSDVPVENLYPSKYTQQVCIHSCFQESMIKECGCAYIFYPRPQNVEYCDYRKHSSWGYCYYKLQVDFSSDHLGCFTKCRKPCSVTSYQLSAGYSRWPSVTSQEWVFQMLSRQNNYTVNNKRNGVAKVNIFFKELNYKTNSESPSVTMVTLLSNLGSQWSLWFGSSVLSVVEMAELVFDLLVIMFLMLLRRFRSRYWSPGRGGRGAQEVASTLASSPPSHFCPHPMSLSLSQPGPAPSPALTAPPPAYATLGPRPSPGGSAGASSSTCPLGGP
T1 sequence (P51168 1-640): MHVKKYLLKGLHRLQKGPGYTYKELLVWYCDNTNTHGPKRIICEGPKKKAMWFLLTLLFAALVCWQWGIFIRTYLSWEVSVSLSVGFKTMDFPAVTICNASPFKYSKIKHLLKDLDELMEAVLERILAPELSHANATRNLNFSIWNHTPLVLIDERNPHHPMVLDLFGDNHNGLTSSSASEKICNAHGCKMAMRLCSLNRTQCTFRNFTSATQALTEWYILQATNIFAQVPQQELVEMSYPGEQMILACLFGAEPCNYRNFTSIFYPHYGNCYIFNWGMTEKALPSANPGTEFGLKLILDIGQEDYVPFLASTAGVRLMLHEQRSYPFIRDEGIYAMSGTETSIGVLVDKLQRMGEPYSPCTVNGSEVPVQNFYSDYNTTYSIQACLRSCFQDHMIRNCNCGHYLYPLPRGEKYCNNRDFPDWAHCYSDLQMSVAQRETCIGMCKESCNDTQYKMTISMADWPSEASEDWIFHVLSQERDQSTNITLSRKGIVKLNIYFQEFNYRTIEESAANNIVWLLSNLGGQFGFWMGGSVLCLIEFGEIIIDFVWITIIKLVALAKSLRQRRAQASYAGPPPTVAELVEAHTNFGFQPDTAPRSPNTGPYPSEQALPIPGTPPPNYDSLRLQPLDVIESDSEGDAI
T1 sequence (P51170 1-649): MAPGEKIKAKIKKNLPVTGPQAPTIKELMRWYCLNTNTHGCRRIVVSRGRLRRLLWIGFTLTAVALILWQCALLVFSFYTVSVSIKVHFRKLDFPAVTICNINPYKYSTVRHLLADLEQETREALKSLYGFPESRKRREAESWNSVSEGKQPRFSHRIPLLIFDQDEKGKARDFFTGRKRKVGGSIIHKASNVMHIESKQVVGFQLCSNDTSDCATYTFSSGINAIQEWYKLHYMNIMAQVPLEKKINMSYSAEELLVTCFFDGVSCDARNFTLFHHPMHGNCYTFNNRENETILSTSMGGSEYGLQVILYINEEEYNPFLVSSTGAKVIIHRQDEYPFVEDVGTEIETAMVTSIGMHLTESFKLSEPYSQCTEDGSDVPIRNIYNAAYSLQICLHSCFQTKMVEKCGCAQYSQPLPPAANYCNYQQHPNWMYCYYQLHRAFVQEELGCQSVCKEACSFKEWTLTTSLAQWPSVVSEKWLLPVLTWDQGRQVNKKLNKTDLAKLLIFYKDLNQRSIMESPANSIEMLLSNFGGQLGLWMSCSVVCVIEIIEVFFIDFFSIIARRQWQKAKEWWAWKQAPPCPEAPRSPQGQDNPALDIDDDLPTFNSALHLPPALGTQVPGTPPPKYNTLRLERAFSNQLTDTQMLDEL

[5] = tested on: ASICs; settings: in vitro; cited from earlier work
[6] = target: T2, heteromeric ASIC1a/2b (Homo sapiens, UniProt P78348+Q16515); settings: cited from earlier work
T2 sequence (P78348 1-528): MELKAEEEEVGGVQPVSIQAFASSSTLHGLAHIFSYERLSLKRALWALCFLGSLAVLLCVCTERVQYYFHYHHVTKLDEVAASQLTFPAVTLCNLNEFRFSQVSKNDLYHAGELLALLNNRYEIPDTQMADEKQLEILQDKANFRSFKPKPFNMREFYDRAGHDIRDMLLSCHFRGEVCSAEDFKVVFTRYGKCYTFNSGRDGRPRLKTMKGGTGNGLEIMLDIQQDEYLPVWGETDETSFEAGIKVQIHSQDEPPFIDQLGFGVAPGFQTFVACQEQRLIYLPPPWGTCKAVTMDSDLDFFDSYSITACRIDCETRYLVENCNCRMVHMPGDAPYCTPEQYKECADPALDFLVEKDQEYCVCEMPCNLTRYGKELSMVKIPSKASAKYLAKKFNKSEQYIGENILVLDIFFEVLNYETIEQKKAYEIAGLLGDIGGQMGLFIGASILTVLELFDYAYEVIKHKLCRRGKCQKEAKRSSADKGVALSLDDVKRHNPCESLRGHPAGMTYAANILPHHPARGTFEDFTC
T2 sequence (Q16515 1-563 isoform Q16515-2): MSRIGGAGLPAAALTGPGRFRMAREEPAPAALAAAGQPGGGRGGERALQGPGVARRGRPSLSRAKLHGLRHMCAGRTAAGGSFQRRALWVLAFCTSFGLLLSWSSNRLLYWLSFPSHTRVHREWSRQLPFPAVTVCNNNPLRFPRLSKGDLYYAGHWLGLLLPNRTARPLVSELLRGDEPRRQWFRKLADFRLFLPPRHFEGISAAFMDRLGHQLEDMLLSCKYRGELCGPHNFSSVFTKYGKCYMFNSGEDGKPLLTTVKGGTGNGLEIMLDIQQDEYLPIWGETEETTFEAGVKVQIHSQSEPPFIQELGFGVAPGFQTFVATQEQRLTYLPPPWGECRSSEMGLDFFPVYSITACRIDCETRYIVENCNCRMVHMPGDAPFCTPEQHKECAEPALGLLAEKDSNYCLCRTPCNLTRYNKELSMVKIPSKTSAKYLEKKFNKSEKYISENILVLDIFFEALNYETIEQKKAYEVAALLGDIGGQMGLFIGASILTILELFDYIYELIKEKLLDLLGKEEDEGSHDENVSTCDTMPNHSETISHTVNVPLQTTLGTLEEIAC

[7] = target: T3, homomeric ASIC1a (Homo sapiens, UniProt P78348); settings: cited from earlier work
T3 sequence (P78348 1-528): T2 sequence (P78348 1-528)

[8] = tested on: DEG/ENaC ion channels; assay: Short-term food intake in normal mice; format: in vivo, C57BL6 mice; settings: 15 minutes before feeding
Protocol: 13 weeks old C57BL6 Female and male mice were singly housed for 2 weeks before the experiment. Mice were starved Sam-6 μm. […] The administrated volume was 10 ml/kg body weight. 15 minutes later, normal chow solid food was provided to the mice and the food consumption at designated time points were measured. P-values were calculated using t-test (unpaired, 2 tails) for data points. *=p<0.05, **=p<0.01, ***=p<0.001
15 weeks old C57BL6 female mice were singly housed for 2 weeks before the experiment. Mice were starved Sam-6 μm. Then Benzamil (Benzamil hydrochloride hydrate) was administrated by intraperitoneal injection, 0.01-10 μmole/kg body weight (3.5621 μg 3.5621 mg/kg b.w.), or saline. The administrated volume was 10 ml/kg body weight. 15 minutes later, normal chow solid food was provided to the mice and the food consumption at designated time points were measured.

[9] = tested on: ASICs; settings: cited from earlier work
[10] = Weight change in LepR^PB obese mice; format: in vivo, LepR^PB female mice; settings: oral gavage 6 times a week for 5 weeks, 4.1 mg/kg/day Day 1-14, 12.3 mg/kg/day Day 15-35; by day 35
Protocol: 8 weeks old LepR^PB female mice were used in the experiment. LepR^PB mouse is a model of obesity, which carries a mutation in the gene for the leptin receptor. 20 mice were randomly divided into two groups. […] Amiloride was dissolved in DMSO and diluted in sterile water. […] The injection volume was 10 ml/kg. The mice in control group received 82 μl DMSO/kg/day in sterile water. Body weight was measured. The weight changes compared to the body weight on Day 14 were analyzed.

[11] = Body composition by NMR in LepR^PB obese mice; format: in vivo, LepR^PB female mice; settings: before and after 5-week administration
[12] = tested on: ASICs; settings: Rat DRG neurons, in vitro; cited from earlier work

Compound: CC(C)C1c2cc(C#Cc3ccc4cc(C(=N)N)ccc4c3)ccc2CCN1C (stereo not drawn) [10b]
- potency relative to A-317567 [1]: about 3 fold

Compound: APETx2
- excitotoxicity, spasms, convulsions, motor paralysis, ataxia upon in vivo injections [2]: never produce excitotoxicity, spasms, convulsions, motor paralysis, nor ataxia

Compound: N=C(NC(=O)c1nc(Cl)c(N)nc1N)NC1CCN(C(=O)c2ccc(C(=O)N3CCC(NC(=N)NC(=O)c4nc(Cl)c(N)nc4N)CC3)cc2)CC1 [NVP-QBE170]
- safety window over existing ENaC blockers, in terms of hyperkalaemia [3]: significantly enhanced safety window
- blockage of ENaC [4]: potent and selective blockage of ENaC

Compound: N=C(N)c1ccc(-c2cc3ccc(C(=N)N)cc3[nH]2)cc1 [DAPI, 4′,6-diamidino-2-phenylindole]
- ASICs blockage activity [5]: potent ASICs blockage activity

Compound: PcTx1
- inhibition of heteromeric ASIC1a/2b [6]: nanomolar potency
- excitotoxicity, spasms, convulsions, motor paralysis, ataxia upon in vivo injections [2]: never produce excitotoxicity, spasms, convulsions, motor paralysis, nor ataxia
- inhibition of homomeric ASIC1a [7]: nanomolar potency

Compound: NC(N)=NC(=O)c1nc(Cl)c(N)nc1N [Amiloride, 3,5-diamino-6-chloro-N-(diaminomethylidene)pyrazine-2-carboxamide]
- short-term food intake ([8]; intraperitoneal, 1, 10 or 100 μmole/kg, male C57BL6 mice): suppressed short-term food intake
- short-term food intake ([8]; oral gavage, 1, 10 or 100 μmole/kg, female C57BL6 mice): suppressed short-term food intake
- IC50 [9]: 10 to 100 µM
- body weight change compared to Day 14, vs DMSO [10]: significant reductions in body weight; also recorded: clear reduction in weight
- reduction in body fat percentage vs DMSO [11]: significantly more reduction
- reduction in body fluid percentage vs DMSO [11]: not significantly different; also recorded: no significant difference

Compound: N=C(N)c1ccc(/N=N/Nc2ccc(C(=N)N)cc2)cc1 [diminazene]
- ASICs blockage activity [5]: potent ASICs blockage activity

Compound: CC(C)C1c2cc(/C=C/c3ccc4cc(C(=N)N)ccc4c3)ccc2CCN1C (stereo not drawn) [10a]
- potency relative to A-317567 [1]: about 3 fold

Compound: CC(C)C1c2cc(C3CC3c3ccc4cc(C(=N)N)ccc4c3)ccc2CCN1C (stereo not drawn) [A-317567]
- potency relative to Amiloride on ASICs currents [12]: 1.8-15 fold

Compound: N=C(N)c1ccc(OCCCCCOc2ccc(C(=N)N)cc2)cc1 [pentamidine]
- ASICs blockage activity [5]: potent ASICs blockage activity
